Active and inactive are the calls of the source. No cut-off for these calls is given here.
Assays:
Type in all cases: functional
Rattus norvegicus [1] = species on record: Rattus norvegicus; experiment: Effect on neurochemical transmission in Sprague-Dawley rat cortical wedge assessed as hyperpolarization activity at 50 to 500 uM
[2] = Reduction of acetylcholine-induced depolarizing response in Sprague-Dawley rat cortical wedge at 50 uM relative to control; parameters: scale not given: the % may be the effect or the level left
Rattus norvegicus [3] = species on record: Rattus norvegicus; experiment: Effect on neurochemical transmission in Sprague-Dawley rat cortical wedge assessed as hyperpolarization activity at 10 to 100 uM
[4] = Reduction of acetylcholine-induced depolarizing response in Sprague-Dawley rat cortical wedge at 10 uM relative to control; parameters: scale not given: the % may be the effect or the level left

In the case of CN1CC[C@]23c4ccccc4N[C@H]1[C@]21CCN(C)[C@H]3Nc2ccccc21 [CALYCANTHINE], the Activity (Rattus norvegicus [1]) is reported as “Active” and the Activity [2] is reported as 20.4%.

For CN1CC[C@]2([C@]34CCN(C)[C@H]3Nc3ccccc34)c3ccccc3N[C@H]12 [CHIMONANTHINE], the Activity (Rattus norvegicus [3]) was “Active” and the Activity [4] was 58.3%.

For CN1CC[C@@]2(c3cccc4c3N[C@H]3N(C)CC[C@@]43[C@@]34CCN(C)[C@@H]3N(C)c3ccccc34)c3ccccc3N(C)[C@@H]12 [IDIOSPERMULINE], the Activity (Rattus norvegicus [3]) was “Active” and the Activity [4] was 61.2%.

— ChEMBL document CHEMBL1159280, “Idiospermuline, a trimeric pyrrolidinoindoline alkaloid from the seed of Idiospermum australiense” (1995)
